Assay [1] concerns p53 ubiquitination. The assay can be described thus: In vitro p53 ubiquitination inhibition. The assay is classed as biochemical. The source says: (§1) Several cancer prevention drugs depend mainly on the ubiquitination activities against p53 as a suppressor protein. When E3 ubiquitin protein ligase HDM2 binds to p53, the resulting mechanism is the inhibition of its ability as a transcription activator. Accordingly, the regulative mechanism is acting negatively. Therefore, blocking the p53 binding site on HDM2 provides for a better possible antitumorigenic molecule. Currently, murine double minute 2 (MDM2) is considered as the regulator of choice when it comes to investigatingp53 inhibition.
(§2) Different prepared derivatives 4–6 were evaluated for their inhibitory potential against p53 ubiquitination according to the previously reported procedure.

The test system of assay [2] is p53 ubiquitination. The assay can be described thus: In vivo p53 ubiquitination inhibition.
Description: as §1, §2

In the next assay the test system is MCF-7 xenografts. The assay is described as follows: In vivo human breast cancer xenograft. Details: species or system nude mice. As to conditions: MCF-7 xenograft, eight days of treatment. The text has this: In this section, we developed a breast cancer animal xenograft model for the evaluation of thein vivo anticancer potential of our newly prepared compounds. […] After wards, the noticeable effects were more or less constant up to 14 days of treatment. […] Our results are in good agreement with those previously published on the in vivo anticancer potential of Schiff bases owing to apoptosis induction.
The breast cancer xenograft model protocol was approved by the Institutional Animal Use and Care Committee of the University of Alabama at Birmingham (50-01-05-08B). Female athymic pathogen-free nude mice (nu/nu, 4–6 weeks) were used. Firstly, MCF-7 xenografts were initiated by implanting pellets slowly releasing estrogen for two months (1.7mg 17β-estradiol/pellet) subcutaneously in the female nude mice. After 24 h, confluent MCF-7 cells were harvested, washed two times with serum-free medium, re-suspended, and injected subcutaneously (s.c.) (5 × 10^6 cells, total volume 0.2 mL) into the left inguinal area of the mice. Caliper measurement was used to measure tumor growth in two perpendicular diameters of the implant after 48 h, and its volume was determined. Mice grafted with MCF-7 were divided into different groups (7–10 mice/group). Untreated mice received the solvent only. Treated groups received different prepared derivatives as previously described.
(In xenograft studies the graft and the host belong to different species.)

Assay [3] has as its target T1, recombinant human LDHA protein (Homo sapiens, UniProt P00338).
T1 construct: purchased Abcam ab93699
The assay can be described thus: LDHA inhibition assay (colorimetric NADH kit). It is filed as biochemical. The procedure: The newly synthesized compounds 4–6 were evaluated for their ability to inhibit LDHA in comparison with galloflavin as a known isoform nonselective LDHA inhibitor [44, 45]. The choice of galloflavin as a reference was based on the fact that it is potent anticancer agent and commercially available.
Lactate dehydrogenase assay kit (Abcam, ab102526) and recombinant human LDHA protein (Abcam, ab93699) were used to assess the inhibitory effect of the tested compounds. First, we generated an NADH standard curve for colorimetric detection by measuring the OD (450 nm) at different molar amounts of NADH. The linear regression equation of the curve was derivatized in Graphpad Prism. Tested compounds were dissolved in DMSO and their inhibitory activity was assessed at 140 and 300 μM strength. Galloflavin (Sigma, SML0776) at the same molar concentration was used as a known LDH inhibitor. The master reaction mix composed of LDH assay buffer and 10 ng human LDHA […] per reaction was prepared. Tested compounds were added and the final reaction volume was adjusted to 50 μL. Absorbance at 450 nm was taken after 2–3 min (T-initial) and continued every minute for 118 min (T-final). The change in measurement over time (delta A450) was calculated as T-final minus T-initial. The amount of NADH generated by the assay between T-initial and T-final was deduced by comparing the A450 of each sample to the standard NADH standard curve. LDHA activity was calculated in milliunits per mL as the amount of NADH generated by the assay / (reaction time in minutes (118) x reaction volume in mL ([…]).

In the case of `CC(=NNC(=O)C(CC(C)C)NC(=O)C(Cc1ccccc1)NC(=O)c1cncc(C(=O)NC(Cc2ccccc2)C(=O)NC(CC(C)C)C(=O)NN=C(C)c2ccccn2)c1)c1ccccn1` (centres unmarked) [4a, N^3,N^5-Bis{1-[(4-methyl-1-oxo-1-(2-(1-(pyridin-2-yl)ethylidene)hydrazinyl)pentan-2-yl)amino]-1-oxo-3-phenylpropan-2-yl}pyridine-3,5-dicarboxamide], the IC50 (commonly the concentration that gives 50% inhibition) with p53 ubiquitination [1] (read-out: in vitro IC50, suppression of p53 ubiquitination) worked out at 21.34 ± 0.13 µM; in the assay on p53 ubiquitination [2] (read-out: in vivo IC50, suppression of p53 ubiquitination), 0.12 ± 0.0011 µM. For the same compound, the “fold higher inhibitory effect than positive control (diphenyl imidazole), in vitro p53 ubiquitination” value in the assay on p53 ubiquitination [1] (vs diphenyl imidazole) was “about 12.2 fold”. The “fold higher inhibitory effect than positive control (diphenyl imidazole), in vivo p53 ubiquitination” value in the assay on p53 ubiquitination [2] (in vivo, vs diphenyl imidazole) is listed as ~15.7 fold. The “decrease in tumor growth” value in the assay on MCF-7 xenografts worked out at 81.3%.

With `CC(=NNC(=O)C(CC(C)C)NC(=O)C(Cc1ccccc1)NC(=O)c1cncc(C(=O)NC(Cc2ccccc2)C(=O)NC(CC(C)C)C(=O)NN=C(C)c2ccc([N+](=O)[O-])cc2)c1)c1ccc([N+](=O)[O-])cc1` (centres unmarked) [5e, N^3,N^5-Bis{1-[(4-methyl-1-(2-(1-(4-nitrophenyl)ethylidene)hydrazinyl)-1-oxopentan-2-yl)-amino]-1-oxo-3-phenylpropan-2-yl}pyridine-3,5-dicarboxamide], the IC50 in assay [3] (recombinant human LDHA) came to 141.6 ± 0.98 µM. In addition, the “fold increase in LDHA inhibitory activity compared with galloflavin” value in assay [3] (vs galloflavin) is recorded as ~1.14 fold. In the assay on MCF-7 xenografts, the “decrease in tumor growth” value came to 74.2%.

The values are drawn from article PMC7179198, “Chiral Pyridine-3,5-bis- (L-phenylalaninyl-L-leucinyl) Schiff Base Peptides as Potential Anticancer Agents: Design, Synthesis, and Molecular Docking Studies Targeting Lactate Dehydrogenase-A” (Molecules, 2020).
